The series in a line: Solubility of the ketone compound. Type of series: physicochemical.

As for `CCOc1cc(CCC(C)=O)ccc1O` [ketone compound, 4-(3-Ethoxy-4-hydroxyphenyl)butan-2-one], the solubility in glycerol result (glycerol) is “very low solubility”. Moreover, the solubility in water result (water) is given as “very low solubility”.

(Values after US11458077B2, “Two-phase cosmetic composition comprising a 4-(3-alkoxy-4-hydroxyphenyl)alkyl ketone” (L'OREAL, priority 2017, dated 2022).)
